Source: US10473647B1, “Peptides for use in treatment and diagnosis of type 1 diabetes” (ImmusanT, Inc., priority 2014, dated 2019)

Experiments:
Format in all cases: cell-based, human
[1] = test system: whole blood from subjects with T1D and Celiac disease; assay: Whole blood cytokine release assay, IP-10 (MAGPIX), Example 1; settings: individual 17mer 20 μg/mL, blood 6 days after commencing oral gluten challenge; for subjects with elevated whole blood IP-10 release (2-fold greater than medium alone): four subjects
[2] = test system: whole blood from subjects with T1D and Celiac disease; assay: Whole blood cytokine release assay, IFN-γ (MAGPIX), Example 1; settings: individual 17mer 20 μg/mL, blood 6 days after commencing oral gluten challenge; for subjects with elevated whole blood IFN-γ release: four subjects
[3] = test system: whole blood from subjects with T1D and Celiac disease; assay: Whole blood cytokine release assay, IL-2 (MAGPIX), Example 1; settings: individual 17mer 20 μg/mL, blood 6 days after commencing oral gluten challenge; for subjects with elevated whole blood IL-2 release: four subjects

Sequence	IP-10 fold-change ([1]; Subject 1)	IP-10 fold-change (preproinsulin peptides) ([1]; Subject 1) [fold]	IP-10 fold-change ([1]; Subject 2)	IP-10 fold-change (preproinsulin peptides) ([1]; Subject 2) [fold]	IP-10 fold-change ([1]; Subject 6)	IP-10 fold-change (preproinsulin peptides) ([1]; Subject 6) [fold]	IP-10 fold-change ([1]; Subject 7)	IP-10 fold-change (preproinsulin peptides) ([1]; Subject 7) [fold]	subjects with elevated whole blood IP-10 release (2-fold greater than medium alone) [1]	IFN-g fold-change ([2]; Subject 1)	IFN-g fold-change (preproinsulin peptides) ([2]; Subject 1) [fold]	IFN-g fold-change ([2]; Subject 2)	IFN-g fold-change (preproinsulin peptides) ([2]; Subject 2) [fold]	IFN-g fold-change ([2]; Subject 6)	IFN-g fold-change (preproinsulin peptides) ([2]; Subject 6) [fold]	IFN-g fold-change ([2]; Subject 7)	IFN-g fold-change (preproinsulin peptides) ([2]; Subject 7) [fold]	IL-2 fold-change ([3]; Subject 1)	IL-2 fold-change (preproinsulin peptides) ([3]; Subject 1) [fold]	IL-2 fold-change ([3]; Subject 2)	other results
MRLLPLLALLALWGPDP [SEQ ID NO: 47]	2.07	2.07	1.37	1.37	7.26	7.26	2.18	2.18	recognized more weakly by three subjects	1.02	1.02	0.85	0.85	0.91	0.91	0.53	0.53	1.00	1.00	1.00	IL-2 fold-change (preproinsulin peptides) ([3]; Subject 2): 1.00 fold; IL-2 fold-change ([3]; Subject 6): 1.00; IL-2 fold-change (preproinsulin peptides) ([3]; Subject 6): 1.00 fold; IL-2 fold-change ([3]; Subject 7): 0.36; IL-2 fold-change (preproinsulin peptides) ([3]; Subject 7): 0.36 fold
NQHLCGSHLVEALYLVC [SEQ ID NO: 51]	0.95	0.95	1.45	1.45	75.09	75.09	1.57	1.57	pronounced in one subject	0.91	0.91	0.82	0.82	1.66	1.66	0.53	0.53	1.00	1.00	1.00	IL-2 fold-change (preproinsulin peptides) ([3]; Subject 2): 1.00 fold; IL-2 fold-change ([3]; Subject 6): 1.00; IL-2 fold-change (preproinsulin peptides) ([3]; Subject 6): 1.00 fold; IL-2 fold-change ([3]; Subject 7): 0.21; IL-2 fold-change (preproinsulin peptides) ([3]; Subject 7): 0.21 fold
NVGADIKKTMEGPVEGR [SEQ ID NO: 69]									Only Subject 7 responded												subjects with elevated whole blood IFN-γ release [2]: Only Subject 7 responded; subjects with elevated whole blood IL-2 release [3]: Only Subject 7 responded
PKAARPPVTPVLLEKKS [SEQ ID NO: 13]									all four subjects												subjects with elevated whole blood IFN-γ release [2]: not IL-2 or IFN-γ release; subjects with elevated whole blood IL-2 release [3]: not IL-2
PKTRREAEVGQVELGGG [SEQ ID NO: 52]	1.08	1.08	1.56	1.56	3.69	3.69	0.97	0.97		1.07	1.07	1.08	1.08	0.81	0.81	0.52	0.52	1.00	1.00	1.00	IL-2 fold-change (preproinsulin peptides) ([3]; Subject 2): 1.00 fold; IL-2 fold-change ([3]; Subject 6): 1.00; IL-2 fold-change (preproinsulin peptides) ([3]; Subject 6): 1.00 fold; IL-2 fold-change ([3]; Subject 7): 0.21; IL-2 fold-change (preproinsulin peptides) ([3]; Subject 7): 0.21 fold
PLALEGSLQKRGIVEQC [SEQ ID NO: 58]	1.23	1.23	1.02	1.02	0.87	0.87	1.09	1.09		0.43	0.43	0.82	0.82	0.86	0.86	1.53	1.53	1.00	1.00	1.00	IL-2 fold-change (preproinsulin peptides) ([3]; Subject 2): 1.00 fold; IL-2 fold-change ([3]; Subject 6): 1.00; IL-2 fold-change (preproinsulin peptides) ([3]; Subject 6): 1.00 fold; IL-2 fold-change ([3]; Subject 7): 3.50; IL-2 fold-change (preproinsulin peptides) ([3]; Subject 7): 3.50 fold
PLLALLALWGPDPAAAF [SEQ ID NO: 45]	3.27	3.27	6.60	6.60	31.61	31.61	2.73	2.73	all four subjects	0.78	0.78	1.53	1.53	1.11	1.11	1.55	1.55	1.00	1.00	1.00	IL-2 fold-change (preproinsulin peptides) ([3]; Subject 2): 1.00 fold; IL-2 fold-change ([3]; Subject 6): 1.64; IL-2 fold-change (preproinsulin peptides) ([3]; Subject 6): 1.64 fold; IL-2 fold-change ([3]; Subject 7): 3.77; IL-2 fold-change (preproinsulin peptides) ([3]; Subject 7): 3.77 fold
REAEDLQVGQVELGGGP [SEQ ID NO: 48]	2.00	2.00	1.67	1.67	1.13	1.13	2.48	2.48	immunogenic	0.75	0.75	0.88	0.88	1.07	1.07	0.67	0.67	1.00	1.00	1.00	IL-2 fold-change (preproinsulin peptides) ([3]; Subject 2): 1.00 fold; IL-2 fold-change ([3]; Subject 6): 1.12; IL-2 fold-change (preproinsulin peptides) ([3]; Subject 6): 1.12 fold; IL-2 fold-change ([3]; Subject 7): 0.50; IL-2 fold-change (preproinsulin peptides) ([3]; Subject 7): 0.50 fold
RGFFYTPKTRREAEVGE [SEQ ID NO: 57]	0.92	0.92	0.91	0.91	0.90	0.90	0.75	0.75		1.06	1.06	0.82	0.82	1.06	1.06	1.09	1.09	1.00	1.00	1.00	IL-2 fold-change (preproinsulin peptides) ([3]; Subject 2): 1.00 fold; IL-2 fold-change ([3]; Subject 6): 1.00; IL-2 fold-change (preproinsulin peptides) ([3]; Subject 6): 1.00 fold; IL-2 fold-change ([3]; Subject 7): 2.59; IL-2 fold-change (preproinsulin peptides) ([3]; Subject 7): 2.59 fold
RREAEDLEGSLQPLALE [SEQ ID NO: 49]	1.36	1.36	2.58	2.58	3.15	3.15	0.99	0.99		0.99	0.99	1.27	1.27	1.00	1.00	0.77	0.77	1.00	1.00	1.00	IL-2 fold-change (preproinsulin peptides) ([3]; Subject 2): 1.00 fold; IL-2 fold-change ([3]; Subject 6): 1.08; IL-2 fold-change (preproinsulin peptides) ([3]; Subject 6): 1.08 fold; IL-2 fold-change ([3]; Subject 7): 0.42; IL-2 fold-change (preproinsulin peptides) ([3]; Subject 7): 0.42 fold
SSEVQQVPSPVSSEPPK [SEQ ID NO: 68]									Only Subject 7 responded												subjects with elevated whole blood IFN-γ release [2]: Only Subject 7 responded; subjects with elevated whole blood IL-2 release [3]: Only Subject 7 responded
WESGCTVIVMLTPLVED [SEQ ID NO: 67]									Only Subject 7 responded												subjects with elevated whole blood IFN-γ release [2]: Only Subject 7 responded; subjects with elevated whole blood IL-2 release [3]: Only Subject 7 responded
